Experimental findings from patent US10329289B2, “6,7-dihydro-5H-pyrrolo[3,4-B]pyridin-5-one allosteric modulators of the M4 muscarinic acetylcholine receptor” (Merck Sharp & Dohme Corp., priority 2015, dated 2019) are described below.

The test deals with T1, human M4 muscarinic acetylcholine receptor (Homo sapiens, UniProt P08173).
T1 construct: expressed in transfected cells; host or cells: CHO-K1
T1 sequence (P08173 1-479): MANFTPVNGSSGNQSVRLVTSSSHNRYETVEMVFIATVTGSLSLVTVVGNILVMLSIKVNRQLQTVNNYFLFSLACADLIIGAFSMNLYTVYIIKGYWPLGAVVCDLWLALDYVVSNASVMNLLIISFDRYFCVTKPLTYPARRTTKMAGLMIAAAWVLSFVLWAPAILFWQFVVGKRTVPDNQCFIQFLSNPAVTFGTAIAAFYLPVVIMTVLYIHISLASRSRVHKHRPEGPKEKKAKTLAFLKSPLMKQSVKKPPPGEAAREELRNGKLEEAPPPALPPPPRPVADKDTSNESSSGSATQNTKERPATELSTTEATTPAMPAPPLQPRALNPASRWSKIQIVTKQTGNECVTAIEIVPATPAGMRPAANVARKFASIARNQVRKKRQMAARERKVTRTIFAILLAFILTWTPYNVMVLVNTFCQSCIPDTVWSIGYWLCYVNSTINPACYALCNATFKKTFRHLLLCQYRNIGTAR
The experiment in a line: human FLIPR-based M4 PAM assay (Ca2+ mobilization, CHO-K1 cells with human M4 receptor and Gαqi5). In kind it is cell-based. To be noted: acetylcholine at 20% of maximum response, read-out: M4 PAM IP. The method in brief:
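Calcium-mobilization (FLIPR) readout in dye-loaded CHO-K1 cells co-expressing human M4 receptor and Gαqi5. Potentiation measured against acetylcholine at a concentration giving 20% of maximal response, with an optional 70% addition; the reported value is the curve inflection point from a 4-parameter logistic fit.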
For orientation: A change in cytosolic calcium serves as a functional read-out for many receptors and channels.
Regarding `Cc1c(N2CC[C@@H](Oc3cnn(C)c3)C(F)(F)C2)nc2c(c1C)C(=O)NC2` [Example 336B, (R)-2-(3,3-difluoro-4-((1-methyl-1H-pyrazol-4-yl)oxy)piperidin-1-yl)-3,4-dimethyl-6,7-dihydro-5H-pyrrolo[3,4-b]pyridin-5-one], the EC50 worked out at 650 nM.
The value for `Cc1cc2c(nc1N1CCC(Oc3ccc(N)nc3)CC1)CNC2=O` [Example 104, 2-(4-((6-aminopyridin-3-yl)oxy)piperidin-1-yl)-3-methyl-6,7-dihydro-5H-pyrrolo[3,4-b]pyridin-5-one] was 60 nM; that for `Cc1c(N2CC[C@H](Oc3cnn(C)c3)C(F)(F)C2)nc2c(c1C)C(=O)NC2` [Example 336C, (S)-2-(3,3-difluoro-4-((l-methyl-1H-pyrazol-4-yl)oxy)piperidin-1-yl)-3,4-dimethyl-6,7-dihydro-5H-pyrrolo[3,4-b]pyridin-5-one] was 33 nM.
The value for `Cc1c(N2CCC(OC[C@@]3(C)CC3(F)F)CC2)nc2c(c1C)C(=O)N(CCO)C2` [Example 265B, (R)-2-(4-((2,2-difluoro-1-methylcyclopropyl)methoxy)piperidin-1-yl)-6-(2-hydroxyethyl)-3,4-dimethyl-6,7-dihydro-5H-pyrrolo[3,4-b]pyridin-5-one] was 123 nM.
`COc1ccc(OC2CCN(c3nc4c(cc3C)C(=O)N(C)[C@H]4C(C)(C)O)CC2)cn1` [Example 323A, (R)-7-(2-Hydroxypropan-2-yl)-2-(4-((6-methoxpyridin-3-yl)oxy)piperidin-1-yl)-3,6-dimethyl-6,7-dihydro-5H-pyrrolo[3,4-b]pyridin-5-one]: the EC50 turned out to be 261 nM.
`COCCOC1CCN(c2nc3c(cc2C)C(=O)NC3)CC1` [Example 56, 2-(4-(2-methoxyethoxy)piperidin-1-yl)-3-methyl-6,7-dihydro-5H-pyrrolo[3,4-b]pyridin-5-one]: the EC50 was determined as 11200 nM.
Turning to `Cc1cc2c(nc1N1CCC(OCC3(C)CCC3)CC1)CNC2=O` [Example 184, 3-methyl-2-(4-((1-methylcyclobutyl)meth-oxy)piperidin-1-yl)-6,7-dihydro-5H-pyrrolo[3,4-b]pyridin-5-one], the EC50 was determined as 246 nM.
The figure for `CCc1cc2c(nc1N1CC[C@@H](OCC3(C)CC3)C(F)(F)C1)CNC2=O` (single isomer, unassigned) [Example 374A] is 416 nM; for `Cc1cc2c(nc1N1CCC(OCc3cccnc3)CC1)CNC2=O` [Example 161, 3-Methyl-2-(4-(pyridin-3-ylmethoxy)piperidin-1-yl)-6,7-dihydro-5H-pyrrolo[3,4-b]pyridin-5-one] it is 1520 nM; for `Cc1cncc(OC2CCN(c3nc4c(cc3C)C(=O)N(C)[C@H]4CO)CC2)c1` [Example 344, (R)-7-(hydroxymethyl)-3,6-dimethyl-2-(4-((5-methylpyridin-3-yl)oxy)piperidin-1-yl)-6,7-dihydro-5H-pyrrolo[3,4-b]pyridin-5-one] it is 1220 nM.
As to `CCc1cc2c(nc1N1CCC(Oc3ccc(OC)nc3)CC1)CNC2=O` [Example 228, 3-Ethyl-2-(4-((6-methoxypyridin-3-yl)oxy)piperidin-1-yl)-6,7-dihydro-5H-pyrrolo[3,4-b]pyridin-5-one], the EC50 is 86 nM.
The value for `Cc1cc2c(nc1N1CCC(OC(F)F)CC1)CNC2=O` [Example 4A, 2-(4-(difluoromethoxy)piperidin-1-yl)-3-methyl-6,7-dihydro-5H-pyrrolo[3,4-b]pyridin-5-one] was 2770 nM.
`CNc1ccc(OC2CCN(c3nc4c(cc3C)C(=O)NC4)CC2)cn1` [Example 320, 3-Methyl-2-(4-((6-(methylamino)pyridin-3-yl)oxy)piperidin-1-yl)-6,7-dihydro-5H-pyrrolo[3,4-b]pyridin-5-one]: the EC50 was determined as 150 nM.
The value for `CCOCCOC1CCN(c2nc3c(cc2C)C(=O)NC3)CC1` [Example 54, 2-(4-(2-ethoxyethoxy)piper-idin-1-yl)-3-methyl-6,7-dihydro-5H-pyrrolo[3,4-b]pyridin-5-one] was 8760 nM.
